This note sets out measurements from US9357924B2, “Composition, method, system and kit for optical electrophysiology” (The Research Foundation of State University of New York, priority 2006, dated 2016).

Several values for one entry are separate records, joined by “and”; a condition that tells them apart may be missing. Identical values can stand only once.

One data set has as its system pig cardiac tissue. The data set can be described thus: Dye washout dynamics of OP amplitude in pig cardiac tissue. Particulars: mean ± SD. Here is the method: (§1) The dye testing experiments were performed on typical model animals: mice (n=6), rat (n=11), guinea pig (n=6), pig (n=13). All experimental protocols conformed to the Guide for the Care and Use of Laboratory Animals and were approved by the Committee for the Humane Use of Animal of the SUNY Upstate Medical University. Mice (C57BL/6, 20-25 g) were injected with ketamine (200 mg/kg IP), rats (Sprague Dawley, 300-400 g female) and guinea pigs were injected with heparin (550 U/100 g), and euthanized by sodium phentobarbital (1 ml/100 g for rats and 0.75 ml/100 g for guinea pigs). The heart was then immediately excised and placed in ice-cold cardioplegia solution (CPS) composed of (in mmol/l) 280 Glucose, 13.44 KCl, 12.6 NaHCO3, 34 Mannitol. […] Perfusion and superfusion temperatures were continuously monitored and kept at 36±1° C. by using two sets of glass heating coils and heated-refrigerated circulators. […]
(§2) The acquired images were offline processed to improve their quality. The background autofluorescence (endogenous fluorescence recorded under the same conditions before dye injection) was subtracted from each frame to obtain the voltage-dependent optical signal. To allow temporal alignment and subsequent averaging of successive paced action potentials, the trigger for the pacing stimulus was recorded as a single pixel in the movie frames. […]

The test system of data set [1] is mouse heart cardiac tissue. The data set can be described thus: Dye washout dynamics of OP amplitude in mouse heart. The conditions noted are these: mean ± SD. How it is done: as §1, §2
Data set [2] has as its system guinea pig heart cardiac tissue. The data set can be described thus: Optical action potential recording in Langendorff-perfused guinea pig heart (Tyrode's solution). Particulars: mean ± SD. How it is done: as §1
(§3) After a 20-30 min stabilization period during which the perfusion flow and ECG was monitored, the excitation-contraction uncoupler diacetyl-monoxime (DAM) was added to the perfusate (15 mmol/l) to stop contractions of cardiac tissue. […]

Data set [3] has as its system rat heart cardiac tissue. The data set can be described thus: Optical action potential recording in Langendorff-perfused rat heart (Tyrode's solution). The conditions noted are these: mean ± SD. Here is the method:
as §1, §3

Data set [4] concerns mouse heart cardiac tissue. The data set can be described thus: Optical action potential recording in Langendorff-perfused mouse heart (Tyrode's solution). The conditions noted are these: mean ± SD. Here is the method:
as §1, §3

For data set [5], the system named is guinea pig heart cardiac tissue. The data set can be described thus: Dye washout dynamics of OP amplitude in guinea pig heart. The conditions noted are these: mean ± SD. Here is the method: as §1, §2
Data set [6] has as its system pig cardiac tissue (right free ventricular wall). The data set can be described thus: Optical action potential recording in Tyrode-perfused pig right ventricular wall preparation. The conditions noted are these: for ΔF/F (relative fluorescence, maximal fluorescence efficacy): pig tissue, Tyrode-perfused, epifluorescence; for ΔF/F (relative fluorescence): pig, transillumination mode, thick cardiac tissue ~10 mm. Here is the method: The dye testing experiments were performed on typical model animals: mice (n=6), rat (n=11), guinea pig (n=6), pig (n=13). All experimental protocols conformed to the Guide for the Care and Use of Laboratory Animals and were approved by the Committee for the Humane Use of Animal of the SUNY Upstate Medical University. Mice (C57BL/6, 20-25 g) were injected with ketamine (200 mg/kg IP), rats (Sprague Dawley, 300-400 g female) and guinea pigs were injected with heparin (550 U/100 g), and euthanized by sodium phentobarbital (1 ml/100 g for rats and 0.75 ml/100 g for guinea pigs). The heart was then immediately excised and placed in ice-cold cardioplegia solution (CPS) composed of (in mmol/l) 280 Glucose, 13.44 KCl, 12.6 NaHCO3, 34 Mannitol. After removal of extraneous tissues, the aorta was cannulated and Langendorff perfusion was started with a standard oxygenated Tyrode's solution (composed of (in mmol/l) 130 NaCl, 24 NaHCO3, 1.2 NaH2PO4, 1.0 MgCl2, 5.6 Glucose, 4.0 KCl, 1.8 CaCl2; buffered to a pH of 7.4) at 80 mm Hg and 36° C. Young pigs (15-20 kg,) were heparinized (500 IU, IV) and subsequently anesthetized with sodium phentobarbital (35 mg/kg IV). The heart was rapidly removed and Langendorff-perfused with cold (4° C.) CPS. The right free ventricular wall was quickly excised, and the right coronary artery was cannulated. Non-perfused tissue was removed, leaving a preparation of typically 5×5 cm and a thickness of 8 mm. The preparation was stretched on a plastic frame and perfused with a standard oxygenated Tyrode's solution at 80 mm Hg and 36° C. Whole cannulated heart (mouse, rat or guinea pig) or stretched pig tissue was put into special transparent chamber and superfused with the same solution at a rate of 30-40 ml/min. Perfusion and superfusion temperatures were continuously monitored and kept at 36±1° C. by using two sets of glass heating coils and heated-refrigerated circulators. Electrodes were sutured to whole hearts or inserted into pig tissue to monitor ECG. All preparations were continuously paced at the frequency 6.7 Hz, 5 Hz, 3.3 Hz and 2 Hz for mouse, rat, guinea pig, and pig, respectively.
After a 20-30 min stabilization period during which the perfusion flow and ECG was monitored, the excitation-contraction uncoupler diacetyl-monoxime (DAM) was added to the perfusate (15 mmol/l) to stop contractions of cardiac tissue. After a 20 minute equilibration, the preparation was stained by injecting voltage-sensitive dye solution into the perfusion flow (a bolus injection near cannula).
Solid dyes were dissolved in DMSO to make 10-50 mM stock solution that was kept frozen. […]

The subject of the next data set is blood-perfused pig heart. The data set can be described thus: Optical mapping of blood-perfused Langendorff pig heart. Particulars: for ΔF/F (relative fluorescence): blood perfusion. Here is the method:
Blood-perfused Langendorff preparation of pig heart was implemented. Briefly, approximately 1.5 liters of modified Tyrode's solution (37° C., composition in mmol/L: Na^+, 157; K^+, 4.7; Ca^2+, 1.5; Mg^2+, 0.7, H2PO4^−0.5, Cl^−137.6, HCO3^−28.0, glucose 11.0, dextran 4% and insulin 10 U) was infused in an external jugular vein, and blood-Tyrode's mixture was collected at equal rate from a carotid artery. The heart was perfused with blood-Tyrode mixture in a Langendorff apparatus. The blood-Tyrode mixture will be oxygenated (CO2 5%/02 95%), heated (37° C.) and filtered using a Liliput hollow fiber oxygenator (COBE Cardiovascular, Arvada, Co). Collector tubes were inserted into the right and left ventricles to collect all the blood coming out of the coronary sinus and Thebesian veins. Thereafter, the heart was “sealed” to ensure that all the outflow of perfused blood is collected for recirculation. The heart was placed in a warm bath with heated water-jacketed transparent glass wall and was superfused with an oxygenated, heated Tyrode solution. After a 20-30 min stabilization verified by a vigorous contraction and normal sinus rhythm, the excitation-contraction uncoupler diacetyl-monoxime (DAM) was added to the perfusate (15 mmol/l) to stop contractions. ECG was monitored throughout the experiment to ensure stable capture of the ventricles by the pacing electrode. […]
Blood-perfused pig heart imaging was done in a similar way. Briefly, the dye was excited with a 400-watt tungsten-halogen lamp (excitation filter, 650+/−20 nm) and the fluorescence was collected above 715 nm using a Computar objective lens (HG1208FCS_HSP, F0.8, focal length 12 mm,) and externally cooled CCD camera (Dalsa CA-D1-0128T, Ontario, Canada) at the frame rate of 400-800 fps and 12-bit resolution.
The acquired images were offline processed to improve their quality. The background autofluorescence (endogenous fluorescence recorded under the same conditions before dye injection) was subtracted from each frame to obtain the voltage-dependent optical signal. To allow temporal alignment and subsequent averaging of successive paced action potentials, the trigger for the pacing stimulus was recorded as a single pixel in the movie frames. […] Dye loading and washout dynamics were assessed from averaged sets of OP recordings (3-5 specimens). To facilitate comparison, fluorescence and OP signals were normalized to their peak values (defined as the difference between maximum and minimum values) in some figures.
For the dye loading dynamics, the time to reach peak values of background fluorescence (membrane voltage independent component of the dye molecules fluorescence), OP, and ΔF/F were determined by simple visual inspection of the dynamic plots. […]

The subject of data set [7] is rat heart cardiac tissue. The data set can be described thus: Dye washout dynamics of OP amplitude in rat heart. The conditions noted are these: mean ± SD. How it is done:
as §1, §2

Data set [8] in a line: Absorbance spectra in ethanol. The format is physicochemical. Here is the method:
Absorbance spectra were measured in ethanol (panel A), and a model membrane made of multilamellar lipid vesicles (MLV) composed of egg phosphatidyl choline (panel B). The absorbance spectra reveal single maxima that represent a high level of the dye purity and absence of different configurational isomers. The absorption maxima for JPW6003 in ethanol occurred at 603 nm. For the dye JPW 6033 all absorption maxima are shifted 20-40 nm to shorter wavelengths, but absorbance is 2-3 times higher. Though the long wavelength absorbance peaks range from 561 nm to 603 nm in ethanol, and 526 nm to 539 nm in MLV, in practical applications both dyes can be efficiently excited over a much broader range (500-700 nm), allowing one to optimize excitation for the dye in different tissues, including blood perfused tissue.

Data set [9] can be described thus: Voltage-dependent fluorescence response in voltage-clamped hemispherical lipid bilayer (HLB) model membrane. Here is the method:
Voltage-dependent spectra in model membranes were measured by a voltage-clamped hemispherical lipid bilayer (HLB) apparatus modified for near infrared fluorescence detection. In this experiment, light from a tungsten lamp is sent through a monochromator and then focused onto the bottom of the HLB, stained with dye from the external aqueous bathing solution. The monochromator is then scanned over the wavelength range of interest while a train of ±50 mV voltage steps are applied to the membrane at a frequency of 40 Hz and the modulation of the detected light signal is measured with a lockin amplifier. The transmitted light signal is collected at 180° from the incident light. Fluorescence is collected at 90° via fiber optic light guide through cutoff filters at 715 nm.

The test system of the next data set is various cardiac tissues. The data set can be described thus: Dye performance in various cardiac tissues compared with di-4-ANEPPS. The conditions noted are these: in any of the tested species. How it is done: as §1, with “Mannitol. After removal of extraneous tissues, the aorta was cannulated and Langendorff perfusion was started with a standard oxygenated Tyrode's solution (composed of (in mmol/l) 130 NaCl, 24 NaHCO3, 1.2 NaH2PO4, 1.0 MgCl2, 5.6 Glucose, 4.0 KCl, 1.8 CaCl2; buffered to a pH of 7.4) at 80 mm Hg and 36° C. Young pigs (15-20 kg,) were heparinized (500 IU, IV) and subsequently anesthetized with sodium phentobarbital (35 mg/kg IV).” for “Mannitol.”

`CCCCN(CCCC)c1ccc2cc(/C=C/C=C/c3cc[n+](CCC[N+](C)(C)C)c4ccccc34)ccc2c1.[Br-].[Br-]` [JPW6003, Di-4-ANBDQPQ]: the “50% washout time of OP amplitude” value was found to be 3.33 ± 0.31 h in the data set on pig cardiac tissue, 1.4 ± 0.2 h in data set [1], 2.80 ± 0.31 h in data set [5] and 2.50 ± 0.28 h in the data set with rat heart cardiac tissue [7]. In addition, the “ΔF/F (relative fluorescence, maximal fluorescence efficacy)” value in data set [2] is 11.3 ± 1.0%; in the data set on rat heart cardiac tissue [3] it was 11.1 ± 1.6%; in [4] it was 9.1 ± 1.4%; in data set [6] it was 18.7% and 18.7 ± 1.1%. Besides, the “ΔF/F (relative fluorescence)” value in [6] is on record as “approximately 20%”; in the data set on blood-perfused pig heart (pig, Tyrode's-perfused loading), 12%; in the data set on blood-perfused pig heart (pig, blood-perfused loading (dye injected into blood flow)) it was 5.5 ± 1.5%. For the same compound, the “time of slow increase in total fluorescence and OP (dye loading)” value with blood-perfused pig heart (dye injected during recirculated-blood-perfusion) is roughly 1 h. In addition, in the data set on blood-perfused pig heart (pig, regardless of loading in Tyrode's or directly into blood flow), the “steady-state level of deltaF/F during blood perfusion” value is roughly 5%. Further, the “absorption maxima (excitation wavelength)” value in data set [8] came to 603 nm.

In the case of `CCCCN(CCCC)c1ccc2cc(/C=C/c3cc[n+](CCCS(=O)(=O)[O-])cc3)ccc2c1` [di-4-ANEPPS], in data set [9], the “delta F/F (relative fluorescence) in a model membrane” value was 9%.

Regarding Di-4-ANBDQBS [JPW6033], the “50% washout time of OP amplitude” value in the data set with pig cardiac tissue was 2.50 ± 0.28 h; in data set [1], 1.0 ± 0.1 h; in [5] it was 2.0 ± 0.2 h; in the data set with rat heart cardiac tissue [7], 1.8 ± 0.2 h. The “ΔF/F (relative fluorescence, maximal fluorescence efficacy)” value in data set [2] came out at 12.5 ± 1.4%; with rat heart cardiac tissue [3] it was 14 ± 1.5%; in data set [4], 10 ± 1.5%; in data set [6], 15 ± 1.0%. Further, in [6], the “ΔF/F (relative fluorescence)” value was determined as 14 ± 1.1%. For the same compound, in the data set on various cardiac tissues, the “OP amplitude higher than that of di-4-ANEPPS” value is reported as 50-100%.
